Test results taken from EP0496162A2, “Peptide inhibitors of RAS-GAP interaction” (MERCK & CO. INC., priority 1990, dated 1992).
No end group written: not given here.

How the values were obtained:
[1] = molecular target: T1, Ras-GAP interaction (Bos taurus, UniProt P09851); experiment: Ras-GAP interaction inhibition assay (GAP-stimulated Ras GTPase, charcoal adsorption); assay type: biochemical, bovine; conditions: concentration of peptide required to reduce GAP stimulated Ras-GTP hydrolysis by 50%; 10 fmol GAP, 240 fmol Ha ras p21-GTP, 4 minutes at 24°C
T1 construct: made in house; host or cells: GAP: E. coli JM109 (plasmid pYO); Ha-Ras: E. coli RRllaci^q (plasmid pRas[Gly12 Ala59])
T1 sequence (P09851 1-1044): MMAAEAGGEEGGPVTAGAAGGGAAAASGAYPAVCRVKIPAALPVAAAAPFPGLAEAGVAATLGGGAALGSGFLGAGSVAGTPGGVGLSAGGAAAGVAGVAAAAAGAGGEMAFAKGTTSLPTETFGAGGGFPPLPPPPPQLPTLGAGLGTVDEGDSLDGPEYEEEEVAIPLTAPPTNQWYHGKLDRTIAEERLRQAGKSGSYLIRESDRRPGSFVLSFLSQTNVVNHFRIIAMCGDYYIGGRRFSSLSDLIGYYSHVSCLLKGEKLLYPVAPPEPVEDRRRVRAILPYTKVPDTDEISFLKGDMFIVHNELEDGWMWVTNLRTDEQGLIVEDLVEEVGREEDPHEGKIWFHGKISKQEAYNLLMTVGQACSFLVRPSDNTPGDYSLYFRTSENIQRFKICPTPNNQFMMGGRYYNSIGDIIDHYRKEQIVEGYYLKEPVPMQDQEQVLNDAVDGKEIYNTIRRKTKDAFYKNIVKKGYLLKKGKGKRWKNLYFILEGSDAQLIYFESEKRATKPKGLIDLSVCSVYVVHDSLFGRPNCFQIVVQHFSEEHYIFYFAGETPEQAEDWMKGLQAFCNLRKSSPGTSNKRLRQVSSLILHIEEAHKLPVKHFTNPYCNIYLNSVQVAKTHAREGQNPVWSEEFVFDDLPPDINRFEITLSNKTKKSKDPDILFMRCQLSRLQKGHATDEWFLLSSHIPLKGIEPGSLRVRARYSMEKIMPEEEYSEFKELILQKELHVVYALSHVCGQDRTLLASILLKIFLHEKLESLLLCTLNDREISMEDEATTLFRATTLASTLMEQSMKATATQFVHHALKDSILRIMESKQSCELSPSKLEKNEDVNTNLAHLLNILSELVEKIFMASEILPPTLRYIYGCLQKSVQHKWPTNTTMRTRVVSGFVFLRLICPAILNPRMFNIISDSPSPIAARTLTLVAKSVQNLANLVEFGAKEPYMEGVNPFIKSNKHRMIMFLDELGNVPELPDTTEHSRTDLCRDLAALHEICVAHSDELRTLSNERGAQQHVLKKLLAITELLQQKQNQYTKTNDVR
Procedure: The activity of the synthetic peptides of the present invention, as inhibitors of the interaction of ras with GAP was determined in an assay which measures GAP dependent, Ras GTPase activity. Bovine GAP was either purified from fresh bovine brains or recombinantly produced in E. coli. It is understood that the methods of the present invention may utilize either the recombinant full length GAP or the bovine brain derived GAP. In addition, GAP from other species, such as human and mouse, may be substituted for bovine GAP since they share about 95% amino acid homology. Truncated recombinant forms of GAP are also suitable for use in the Ras-GAP interaction assay [Marshall, M.S., et al., (1989), EMBO J., 8, pp1105-1110]. However, for the screening of synthetic peptides for their ability to block the Ras-GAP interaction, the recombinant, full length GAP is preferred.
The Ras protein utilized in the Ras-GAP GTPase assay of the present invention is Harvey ras (Ha-ras). It is understood that other forms of Ras protein are suitable for use in the present invention. Other suitable forms of Ras protein include, but are not limited to, Kirsten Ras, yeast S. cerevisiae RAS, and N-Ras. Furthermore, it is readily apparent to those skilled in the art that any form of Ras protein which is capable of interacting with GAP is suitable for use in the Ras-GAP GTPase assay.
Ras GTPase activity was measured by the charcoal adsorption procedure. Each 50 µL reaction contained 10 fmol purified GAP, 240 fmol Ha ras p21-[γ ³²P] GTP and 1 mg/mL BSA in buffer D. Varying amounts of the competing peptides were added as indicated. Prewarmed reactions (24°C) were initiated by the addition of GAP, then incubated for 4 minutes at 24°C. The reactions were terminated by the addition of 5 volumes of ice cold 5% activated charcoal (Sigma: HCl washed) in 50 mM NaH₂PO₄. GTPase activity was quantitated by measuring the free ³²P-orthophosphate in the cleared supernatant after centrifugation of the charcoal mix. GAP-stimulated Ras GTPase activity in the absence of competitors was 40-60 fmol Ras-GTP hydrolyzed; the 100% control value. In the absence of GAP, GTP hydrolysis was not detectable during the incubation period of the assay. Inhibitors of this assay block GAP-stimulated Ras GTPase without impairing intrinsic Ras GTPase, assayed in the absence of GAP following incubation at 24°C for one hour.
(§1) Ras peptides were dissolved in either 100% dimethyl formamide (DMF, American Burdick and Jackson) or 100% dimethyl sulfoxide (DMSO, Fluka UV-spectroscopy grade) at a calculated peptide concentration of 1-4 mM. Following 1 minute in a Sonicor SC-200 bath sonicator at room temperature, the peptide solutions were vortexed, and then centrifuged for 5 minutes at room temperature in an Eppendorf microfuge to remove any undissolved material. 20 µL of the cleared peptide solutions were then added to 80 µL of Buffer D in a dilution series covering a range of peptide concentrations from 0.02 µM up to the maximum solubility limit for each peptide. In each dilution, the solvent concentration was maintained at 20%. These peptides solutions were then centrifuged for 5 minutes at room temperature at 10,000 x g, and the cleared supernatants were divided into 2 parts. One part of each cleared peptide dilution was used in a GAP competition assay: 40 µL was added to a 5 µL solution containing 0.1 mg/mL BSA plus 240 fmol Ha-ras p21-[γ-³²P]GTP. Reactions were initiated upon addition of 5 µL of diluted GAP (10 fmol), and analyzed as described above.

[2] = assay type: physicochemical
Procedure: as §1
The other portion of the cleared peptide solution was measured spectrophotometrically to determine solubility and concentration of the peptides. Extinction coefficients were determined by measuring the absorbance at 277 nm of 2 peptides whose exact concentrations were quantitated by amino acid analysis. The extinction coefficients for peptide Ras 17-37 dissolved in buffer D/20% DMF or peptide Ras 91-103 (SEQ ID NO:14)dissolved in water/20% DMSO, were 2580 cm⁻¹M⁻¹ and 2230 cm⁻¹ M⁻¹, respectively. These values were used to determine the exact concentration for each peptide used at each point in the competition assay. In addition, peptide solubility was confirmed by comparing the light scattering at 600 nm for each peptide solution measured before and after centrifugation. Only concentrations reflecting 100% solubility were used in the dose response curves, and the maximum concentration used for each peptide competitor indicates the limit of solubility for that peptide.

| Compound | IC50 [1] | Maximum Solubility [2] | IC50* [1] |
| --- | --- | --- | --- |
| CC[C@H](C)[C@H](NC(=O)[C@H](CC(C)C)NC(=O)[C@H](CCC(N)=O)NC(=O)[C@@H](NC(=O)[C@@H](NC(=O)[C@H](CC(C)C)NC(=O)[C@H](C)NC(=O)[C@@H](N)CO)[C@@H](C)O)[C@@H](C)CC)C(=O)N[C@@H](CCC(N)=O)C(=O)N[C@@H](CC(N)=O)C(=O)N[C@@H](Cc1c[nH]cn1)C(=O)N[C@@H](Cc1ccccc1)C(=O)N[C@H](C(=O)N[C@@H](CC(=O)O)C(=O)N[C@@H](CCC(=O)O)C(=O)N[C@@H](Cc1ccc(O)cc1)C(=O)O)C(C)C [Ras 17-32] | 900 nM | 19 µM |  |
| LIQNHFVDEYDPTIE [Ras 23-37] |  | 250 µM | no inhibition |
| SALTIQLIQNHFVDEYDPTIE [Ras 17-37] | 3600 nM | 40 µM |  |
